Results as given in patent publication US20030087906A1, “NITROGEN SUBSTITUTED BIARYL PURINE DERIVATIVES AS POTENT ANTIPROLIFERATIVE AGENTS” (priority 2001, published 2003).

How the values were obtained:
MDA-MB-231/ATCC = test: NCI 60-cell line growth inhibition assay; assay type: cell-based; conditions: Homo sapiens
NCI/ADR-RES = test: NCI 60-cell line growth inhibition assay; assay type: cell-based; conditions: Homo sapiens
SF-268 = test: NCI 60-cell line growth inhibition assay; assay type: cell-based; conditions: Homo sapiens
SF-295 = test: NCI 60-cell line growth inhibition assay; assay type: cell-based; conditions: Homo sapiens
SNB-75 = test: NCI 60-cell line growth inhibition assay; assay type: cell-based; conditions: Homo sapiens
U251 = test: NCI 60-cell line growth inhibition assay; assay type: cell-based; conditions: Homo sapiens, U-251
COLO 205 = test: NCI 60-cell line growth inhibition assay; assay type: cell-based; conditions: Homo sapiens
HCC-2998 = test: NCI 60-cell line growth inhibition assay; assay type: cell-based; conditions: Homo sapiens
HCT-116 = test: NCI 60-cell line growth inhibition assay; assay type: cell-based; conditions: Homo sapiens
HCT-15 = test: NCI 60-cell line growth inhibition assay; assay type: cell-based; conditions: Homo sapiens
KM12 = test: NCI 60-cell line growth inhibition assay; assay type: cell-based; conditions: Homo sapiens
SW-620 = test: NCI 60-cell line growth inhibition assay; assay type: cell-based; conditions: Homo sapiens; SW-620 (Colon)
CCRF-CEM = test: NCI 60-cell line growth inhibition assay; assay type: cell-based; conditions: Homo sapiens
K-562 = test: NCI 60-cell line growth inhibition assay; assay type: cell-based; conditions: Homo sapiens, K562
MOLT-4 = test: NCI 60-cell line growth inhibition assay; assay type: cell-based; conditions: Homo sapiens
SR = test: NCI 60-cell line growth inhibition assay; assay type: cell-based; conditions: Homo sapiens; SR (Leukemia)
M14 = test: NCI 60-cell line growth inhibition assay; assay type: cell-based; conditions: Homo sapiens
MALME-3M = test: NCI 60-cell line growth inhibition assay; assay type: cell-based; conditions: Homo sapiens
SK-MEL-2 = test: NCI 60-cell line growth inhibition assay; assay type: cell-based; conditions: Homo sapiens
SK-MEL-28 = test: NCI 60-cell line growth inhibition assay; assay type: cell-based; conditions: Homo sapiens
SK-MEL-5 = test: NCI 60-cell line growth inhibition assay; assay type: cell-based; conditions: Homo sapiens
UACC-62 = test: NCI 60-cell line growth inhibition assay; assay type: cell-based; conditions: Homo sapiens
A549/ATCC = test: NCI 60-cell line growth inhibition assay; assay type: cell-based; conditions: Homo sapiens
HOP-62 = test: NCI 60-cell line growth inhibition assay; assay type: cell-based; conditions: Homo sapiens
HOP-92 = test: NCI 60-cell line growth inhibition assay; assay type: cell-based; conditions: Homo sapiens
NCI-H460 = test: NCI 60-cell line growth inhibition assay; assay type: cell-based; conditions: Homo sapiens
NCI-H522 = test: NCI 60-cell line growth inhibition assay; assay type: cell-based; conditions: Homo sapiens; NCI-H522 (Non-Small Cell Lung)
OVCAR-3 = test: NCI 60-cell line growth inhibition assay; assay type: cell-based; conditions: Homo sapiens
OVCAR-5 = test: NCI 60-cell line growth inhibition assay; assay type: cell-based; conditions: Homo sapiens
SK-OV-3 = test: NCI 60-cell line growth inhibition assay; assay type: cell-based; conditions: Homo sapiens
DU-145 = test: NCI 60-cell line growth inhibition assay; assay type: cell-based; conditions: Homo sapiens
786-0 = test: NCI 60-cell line growth inhibition assay; assay type: cell-based; conditions: Homo sapiens
A498 = test: NCI 60-cell line growth inhibition assay; assay type: cell-based; conditions: Homo sapiens
TK-10 = test: NCI 60-cell line growth inhibition assay; assay type: cell-based; conditions: Homo sapiens; TK-10 (Renal)
UO-31 = test: NCI 60-cell line growth inhibition assay; assay type: cell-based; conditions: Homo sapiens
[1] = tested on: Tumor Cells in Hollow Fibers; test: NCI Hollow Fiber Assay (in vivo evaluation); conditions: for IP Score: IP fibers; for SC score: SC fibers
MDA-N = test: NCI 60-cell line growth inhibition assay; assay type: cell-based; conditions: Homo sapiens
UACC-257 = test: NCI 60-cell line growth inhibition assay; assay type: cell-based; conditions: Homo sapiens
EKVX = test: NCI 60-cell line growth inhibition assay; assay type: cell-based; conditions: Homo sapiens
NCI-H322M = test: NCI 60-cell line growth inhibition assay; assay type: cell-based; conditions: Homo sapiens
[2] = A549/ATCC (Non-Small Cell Lung)

SMILES: CC(=O)N[C@H]1CC[C@H](Nc2nc(NCc3ccc(-c4ccccc4)nc3)c3ncn(C(C)C)c3n2)CC1 [Compound 87]
- GI50 (MDA-MB-231/ATCC; MDA-MB-231/ATCC (Breast)): < 10 nM
- GI50 (NCI/ADR-RES; NCI/ADR-RES (Breast)): 280 nM
- GI50 (SF-268; SF-268 (CNS)): < 10 nM
- GI50 (SF-295; SF-295 (CNS)): 47 nM
- GI50 (SNB-75; SNB-75 (CNS)): 12 nM
- GI50 (U251; U251 (CNS)): 28 nM
- GI50 (COLO 205; COLO 205 (Colon)): < 10 nM
- GI50 (HCC-2998; HCC-2998 (Colon)): < 10 nM
- GI50 (HCT-116; HCT-116 (Colon)): 37 nM
- GI50 (HCT-15; HCT-15 (Colon)): 66 nM
- GI50 (KM12; KM12 (Colon)): < 10 nM
- GI50 (SW-620): < 10 nM
- GI50 (CCRF-CEM; CCRF-CEM (Leukemia)): < 10 nM
- GI50 (K-562; K-562 (Leukemia)): 24 nM
- GI50 (MOLT-4; MOLT-4 (Leukemia)): 20 nM
- GI50 (SR): 32 nM
- GI50 (M14; M14 (Melanoma)): < 10 nM
- GI50 (MALME-3M; MALME-3M (Melanoma)): 24 nM
- GI50 (SK-MEL-2; SK-MEL-2 (Melanoma)): 56 nM
- GI50 (SK-MEL-28; SK-MEL-28 (Melanoma)): < 10 nM
- GI50 (SK-MEL-5; SK-MEL-5 (Melanoma)): 28 nM
- GI50 (UACC-62; UACC-62 (Melanoma)): 45 nM
- GI50 (A549/ATCC; [2]): < 10 nM
- GI50 (HOP-62; HOP-62 (Non-Small Cell Lung)): 10 nM
- GI50 (HOP-92; HOP-92 (Non-Small Cell Lung)): 88 nM
- GI50 (NCI-H460; NCI-H460 (Non-Small Cell Lung)): 220 nM
- GI50 (NCI-H522): < 10 nM
- GI50 (OVCAR-3; OVCAR-3 (Ovarian)): 50 nM
- GI50 (OVCAR-5; OVCAR-5 (Ovarian)): 51 nM
- GI50 (SK-OV-3; SK-OV-3 (Ovarian)): 350 nM
- GI50 (DU-145; DU-145 (Prostate)): 220 nM
- GI50 (786-0; 786-0 (Renal)): 47 nM
- GI50 (A498; A498 (Renal)): 100 nM
- GI50 (TK-10): 29 nM
- GI50 (UO-31; UO-31 (Renal)): 16 nM
- IP Score [1]: 30
- SC score [1]: 2

SMILES: CC(C)n1cnc2c(NCc3ccc(-c4ccccn4)cc3)nc(N[C@H]3CC[C@H](N)CC3)nc21 [Compound 78]
- GI50 (MDA-MB-231/ATCC; MDA-MB-231/ATCC (Breast)): < 10 nM
- GI50 (MDA-N; MDA-N (Breast)): < 10 nM
- GI50 (NCI/ADR-RES; NCI/ADR-RES (Breast)): 14400 nM
- GI50 (SF-295; SF-295 (CNS)): 210 nM
- GI50 (SNB-75; SNB-75 (CNS)): < 10 nM
- GI50 (U251; U251 (CNS)): 20 nM
- GI50 (COLO 205; COLO 205 (Colon)): < 10 nM
- GI50 (HCC-2998; HCC-2998 (Colon)): < 10 nM
- GI50 (HCT-116; HCT-116 (Colon)): 30 nM
- GI50 (HCT-15; HCT-15 (Colon)): 1480 nM
- GI50 (KM12; KM12 (Colon)): < 10 nM
- GI50 (SW-620): < 10 nM
- GI50 (K-562; K-562 (Leukemia)): 20 nM
- GI50 (MOLT-4; MOLT-4 (Leukemia)): < 10 nM
- GI50 (M14; M14 (Melanoma)): < 10 nM
- GI50 (MALME-3M; MALME-3M (Melanoma)): 10 nM
- GI50 (SK-MEL-2; SK-MEL-2 (Melanoma)): 20 nM
- GI50 (SK-MEL-28; SK-MEL-28 (Melanoma)): 10 nM
- GI50 (SK-MEL-5; SK-MEL-5 (Melanoma)): 100 nM
- GI50 (UACC-257; UACC-257 (Melanoma)): 20 nM
- GI50 (UACC-62; UACC-62 (Melanoma)): 30 nM
- GI50 (A549/ATCC; [2]): < 10 nM
- GI50 (EKVX; EKVX (Non-Small Cell Lung)): 50 nM
- GI50 (HOP-62; HOP-62 (Non-Small Cell Lung)): 20 nM
- GI50 (NCI-H322M; NCI-H322M (Non-Small Cell Lung)): < 10 nM
- GI50 (NCI-H460; NCI-H460 (Non-Small Cell Lung)): 50 nM
- GI50 (NCI-H522): < 10 nM
- GI50 (OVCAR-3; OVCAR-3 (Ovarian)): 30 nM
- GI50 (OVCAR-5; OVCAR-5 (Ovarian)): < 10 nM
- GI50 (SK-OV-3; SK-OV-3 (Ovarian)): 60 nM
- GI50 (DU-145; DU-145 (Prostate)): 60 nM
- GI50 (786-0; 786-0 (Renal)): 40 nM
- GI50 (A498; A498 (Renal)): 30 nM
- GI50 (TK-10): 70 nM
- GI50 (UO-31; UO-31 (Renal)): 170 nM
- Cell Types Killed [1]: OVCAR 3, SF29
- IP Score [1]: 34
- SC score [1]: 0

SMILES: CC[C@H](CO)Nc1nc(NCc2ccc(-c3ccccc3)cc2)c2ncn(C(C)C)c2n1 [Compound 73]
- GI50 (MDA-MB-231/ATCC; Breast, MDA-MB-231/ATCC): 500 nM
- GI50 (MDA-N; Breast, MDA-N): 130 nM
- GI50 (NCI/ADR-RES; Breast, NCI/ADR-RES): 400 nM
- GI50 (SF-268; CNS, SF-268): 160 nM
- GI50 (SF-295; CNS, SF-295): 250 nM
- GI50 (SNB-75; CNS, SNB-75): 20 nM
- GI50 (U251; CNS, U251): 320 nM
- GI50 (COLO 205; Colon, COLO 205): 280 nM
- GI50 (HCC-2998; Colon, HCC-2998): 200 nM
- GI50 (HCT-116; Colon, HCT-116): 200 nM
- GI50 (HCT-15; Colon, HCT-15): 180 nM
- GI50 (KM12; Colon, KM12): 130 nM
- GI50 (CCRF-CEM; Leukemia, CCRF-CEM): 250 nM
- GI50 (K-562; Leukemia, K-562): 160 nM
- GI50 (MOLT-4; Leukemia, MOLT-4): 320 nM
- GI50 (M14; Melanoma, M14): 30 nM
- GI50 (MALME-3M; Melanoma, MALME-3M): 270 nM
- GI50 (SK-MEL-2; Melanoma, SK-MEL-2): 630 nM
- GI50 (SK-MEL-28; Melanoma, SK-MEL-28): 450 nM
- GI50 (SK-MEL-5; Melanoma, SK-MEL-5): 250 nM
- GI50 (UACC-257; Melanoma, UACC-257): 160 nM
- GI50 (UACC-62; Melanoma, UACC-62): 300 nM
- GI50 (A549/ATCC; Non-Small Cell Lung, A549/ATCC): 30 nM
- GI50 (EKVX; Non-Small Cell Lung, EKVX): 250 nM
- GI50 (HOP-62; Non-Small Cell Lung, HOP-62): 60 nM
- GI50 (HOP-92; Non-Small Cell Lung, HOP-92): 1000 nM
- GI50 (NCI-H322M; Non-Small Cell Lung, NCI-H322M): 160 nM
- GI50 (NCI-H460; Non-Small Cell Lung, NCI-H460): 400 nM
- GI50 (OVCAR-3; Ovarian, OVCAR-3): 300 nM
- GI50 (OVCAR-5; Ovarian, OVCAR-5): 250 nM
- GI50 (SK-OV-3; Ovarian, SK-OV-3): 950 nM
- GI50 (DU-145; Prostate, DU-145): 7080 nM
- GI50 (786-0; Renal, 786-0): 200 nM
- GI50 (A498; Renal, A498): 2880 nM
- GI50 (UO-31; Renal, UO-31): 60 nM
- IP Score [1]: 2
- SC score [1]: 0
